US7960560B2, “1-(biphenyl-4-ylmethyl)imidazolidine-2,4-dione” (N.V. Organon, priority 2008, dated 2011)

Columns and labels:
[1] = tested on: mechanical allodynia induced by spinal nerve ligation in rats; experiment: The rat (Chung) model of neuropathic pain; format: in vivo; details: for Withdrawal threshold (g) at peak effect: male Wistar rats, von Frey, vehicle 2.7 ± 0.2
Description: The Rat (Chung) Model of Neuropathic Pain
In this model, mechanical allodynia is induced by tight ligation of the left L5 spinal nerve.
Male Wistar rats (228-301 g body weight at time of surgery) were employed in the study. Rats were placed on an elevated (˜40 cm) mesh floor in perspex boxes and the rats' withdrawal threshold to a mechanical stimulus (calibrated von Frey filaments) was measured using filaments of increasing force (2.6-167 mN). The von Frey filaments were applied to the plantar surface of the paw and threshold response determined using the up and down method. A positive response was noted if the paw was sharply withdrawn. A cut-off of 15 g was selected as the upper limit for testing. Following baseline measurements each animal was anaesthetised and the L5 spinal nerve tightly ligated. The animals were allowed to recover from the surgery for a period of at least three days. On the day of drug administration the paw withdrawal thresholds were re-measured (0 min). Immediately after this reading, the rats were dosed orally with vehicle or test compound and readings measured at various time points after compound administration.
Data were expressed as mean±s.e.m. Statistical analysis was performed using the Kruskal-Wallis one-way analysis of variance, a non-parametric statistical test. Each of the treatment groups were then compared against the vehicle group, using the non-parametric Dunn's test.

[2] = tested on: mechanical hyperalgesia induced by complete Freund's adjuvant in rats; experiment: Mechanical hyperalgesia in the rat (CFA model of inflammatory pain); format: in vivo; details: for % Attenuation of hyperalgesia (peak effect): male Wistar rats, 24 h after CFA, reading 3 h post drug, vehicle −0.6 ± 11
Description: Mechanical Hyperalgesia in the Rat
In this rat model of inflammatory pain, inflammation is induced by subcutaneous injection of complete Freund's adjuvant (CFA) into the hind paw. The associated mechanical hyperalgesia is quantified by measuring the reduction in paw withdrawal threshold (PWT) to a mechanical compression of the paw.
Experiments were in male Wistar rats weighing (141-175 g). In brief, the rats' paw withdrawal threshold (PWT) to a mechanical compression of the hind paw was measured (baseline reading) using a Randall-Sellito apparatus (Ugo Basile). A cut-off of 20 g was employed to minimise tissue damage to the paw. The animals were then lightly anaesthetised with isoflurane (1-3%) and CFA (0.1 ml.paw^−1) injected subcutaneously (s.c.) into the plantar surface of the left hind paw. The animals were then returned to their home cage and left for the inflammation to develop.
Twenty four h after CFA injection, PWT's were re-measured (0 min) and immediately after this reading, rats were dosed orally with either vehicle or compound 3K (4.5-45 μmol/kg p.o.) Readings were then made at 3 h post drug administration.
Data were plotted as mean±s.e.m. and compared between groups using the Kruskal-Wallis one-way analysis of variance, a non-parametric statistical test.
The percent attenuation of mechanical hyperalgesia is calculated as follows.

O=C1CN(Cc2ccc(-c3ccccc3CN3CCOCC3)cc2)C(=O)N1CC1CC1 [Example 3K, 3-Cyclopropylmethyl-1-(2′-(morpholin-4-ylmethyl)biphenyl-4-ylmethyl)imidazolidine-2,4-dione]
Withdrawal threshold (g) at peak effect ([1]; 4.5 μmol/kg p.o.): 5.8 ± 1.1 g | Withdrawal threshold (g) at peak effect ([1]; 15 μmol/kg p.o., p ≦ 0.05): 6.4 ± 1.0 g | Withdrawal threshold (g) at peak effect ([1]; 45 μmol/kg p.o., p ≦ 0.05): 7.4 ± 1.3 g | Effect on mechanical allodynia ([1]; 4.5-45 μmol/kg p.o., at 120 and 180 min post drug administration): attenuated mechanical allodynia in a dose-dependent fashion | Minimum effective dose (MED) ([1]; p.o., mechanical allodynia, rat): 15 µmol/kg | % Attenuation of hyperalgesia (peak effect) ([2]; 4.5 μmol/kg p.o.): 36 ± 11% | % Attenuation of hyperalgesia (peak effect) ([2]; 45 μmol/kg p.o., p ≦ 0.001): 100 ± 25 % | Effect on mechanical hyperalgesia induced by CFA ([2]; 4.5-45 μmol/kg oral): reversed mechanical hyperalgesia induced by CFA in a dose-dependent fashion | MED ([2]; p.o., CFA-induced mechanical hyperalgesia, rat): 4.4 µmol/kg
